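Tested at 5 concentrations; 48 h exposure; 96-well plates; endpoints linearly interpolated, else capped at highest concentration. At the GI50, growth is halved.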 The source made the active and inactive calls. Cut-off read from the data, not from the text of the source: active = GI50 up to about 1.1 µM and inactive = higher.

Test in all cases: NCI-60 cell line screen, 48 h
Experiment [1] deals with DLD-1.
In experiment [2] the test system is M19-MEL.
For experiment [3], the system named is LXFL 529.
The test system of experiment [4] is KM-20L2.
Experiment [5] deals with SNB-78.
Experiment [6] relates to DMS-114.
Experiment [7] concerns HOP-18.
Experiment [8] concerns RXF 631.
In experiment [9] the test system is XF498.

As for `COC(OC)c1cccc2c1C(=O)CCC1(CC2)OCCCCO1`, the GI50 in experiment [1], in experiment [2], in [3], in experiment [4], in [5] and in experiment [6] was > 100 µM (inactive) throughout. Moreover, in experiment [7], the GI50 is > 100 µM (inactive).
Turning to `O=C1NC(=O)C2C(=O)NC(=O)C1C2c1c(Cl)cccc1Cl` (configuration not stated), the GI50 was > 43.3 µM (inactive) in experiment [1]; > 100 µM (inactive) in experiment [3]; > 100 µM (inactive) in [8]; > 49.5 µM (inactive) in experiment [4]; > 100 µM (inactive) in [5]; > 38.4 µM (inactive) in experiment [6]. Moreover, the GI50 in experiment [9] and in experiment [7] was > 100 µM (inactive) each time.
As to `CCC(=O)C(C)C1=Nc2nnc(CCCCCCCc3nnc4n3C(=O)C(C(C)C(=O)CC)=N4)n2C1=O` (configuration not stated), the GI50 in experiment [2], in experiment [3], in [4], in experiment [6], in experiment [9] and in experiment [7] was > 100 µM (inactive) throughout.
Regarding `CC(=O)NNc1nc(C)c(C(=O)NNC(=O)C(=O)Nc2ccc(Cl)cc2Cl)s1`, the GI50 in [1] was 38.4 µM (inactive); in experiment [2] it was 38.4 µM (inactive); in experiment [3] it was 29.4 µM (inactive); in [4], 40.1 µM (inactive); in [5] it was 36.6 µM (inactive); in [6] it was 33.2 µM (inactive). Also, the GI50 in experiment [9] is 30.1 µM (inactive).
As to `Cc1cccc(N2C(=O)C(=O)C(c3nc4ccccc4s3)C(=O)C2=O)c1C`, the GI50 in experiment [1], in experiment [2], in experiment [3], in experiment [8], in [4] and in experiment [5] was > 100 µM (inactive) each time. Further, the GI50 in experiment [6] and in experiment [7] was > 100 µM (inactive) each time.
As for `CC(=O)/C(=N\O)C(=O)Nc1ccc(Cl)cc1Cl`, the GI50 in [1], in experiment [2], in [3], in [4], in [5] and in [6] was > 100 µM (inactive) in each case. For the same molecule, in experiment [7], the GI50 is 43.1 µM (inactive).
As to `CC1(C)CC(c2c[nH]c3ccccc23)=CC2=Nc3ccccc3C21O` (configuration not stated), the GI50 in [1] is > 100 µM (inactive); in experiment [2] it was > 100 µM (inactive); in experiment [3], 47.4 µM (inactive); in experiment [4], > 100 µM (inactive); in experiment [5], 76 µM (inactive); in experiment [6], > 100 µM (inactive). Moreover, the GI50 in experiment [9] is 29.2 µM (inactive).
For `Cc1c(C(=O)C/C(=N/NC(=O)c2ccccc2O)C(=O)Nc2ccccc2C(C)C)[n+]([O-])c2ccccc2[n+]1[O-]`, the GI50 in [1] was 31.8 µM (inactive); in [2] it was 46.5 µM (inactive); in [3], 25.1 µM (inactive); in experiment [4] it was 39.7 µM (inactive); in experiment [5], 84.7 µM (inactive); in experiment [6], 23.1 µM (inactive). In addition, the GI50 in experiment [9] and in experiment [7] was > 100 µM (inactive) each time.
Regarding `CCCCCCCCCCC(=O)CCCCCCC(=O)O`, the GI50 in [1] is 19 µM (inactive); in experiment [2], 27 µM (inactive); in experiment [3] it was 18.2 µM (inactive); in experiment [8], 19.9 µM (inactive); in experiment [5], 69.8 µM (inactive); in experiment [6], 20.3 µM (inactive). The figures for the GI50 in experiment [9] and in experiment [7] were 24.3 µM (inactive) and 16.9 µM (inactive), respectively.
As to `COc1cc([C@@H]2c3cc4c(cc3[C@@H](NC(=O)c3ccc(OC(C)=O)cc3)C3COC(=O)[C@@H]32)OCO4)cc(OC)c1O` (some centres not stated), the GI50 in [1] was 2.96 µM (inactive); in [2] it was 8.71 µM (inactive); in experiment [3] it was 9.62 µM (inactive); in experiment [8], 1.76 µM (inactive); in experiment [4], 2.13 µM (inactive); in [5] it was 19.8 µM (inactive). In addition, the results for the GI50 in experiment [6], in experiment [9] and in experiment [7] were 1.2 µM (inactive), 0.813 µM (active) and > 100 µM (inactive), respectively.
Take `C[C@H](NS(=O)(=O)c1ccc(NC(=O)c2ccccc2)cc1)C(=O)O`: the GI50 in experiment [1], in experiment [2], in experiment [3], in [4], in [9] and in experiment [7] was > 100 µM (inactive) throughout.
Regarding `CN(C)CC1CCCC/C1=N\OC(=O)c1ccccc1` (configuration not stated), the GI50 in experiment [1], in [2], in [3], in [8], in experiment [4] and in experiment [5] was > 100 µM (inactive) throughout. Also, the GI50 in experiment [6], in [9] and in [7] was > 100 µM (inactive) throughout.
For `Cc1c2ccnc(O)c2cc2c(=O)c3cnccc3[nH]c12`, the GI50 in experiment [1], in [2], in experiment [3], in experiment [4], in [5] and in [6] was > 100 µM (inactive) throughout. Further, the GI50 in [7] is > 100 µM (inactive).
Regarding `O=C1C(CN2CCCCC2)CCCC1CN1CCCCC1` (configuration not stated), the GI50 in experiment [1] is 10.1 µM (inactive); in experiment [3], 15 µM (inactive); in experiment [4] it was 14.4 µM (inactive); in [5], 21.4 µM (inactive); in experiment [9], 21.2 µM (inactive); in [7], 17.2 µM (inactive).
As for `CCC1CNC(=O)CC1CC(=O)OC` (configuration not stated), the GI50 in [4], in [5] and in experiment [6] was > 100 µM (inactive) in each case.
For `Cc1c(/C=C2\CC/C(=C\c3[nH]c(C(=O)OC(C)(C)C)c(C)c3C)C2=O)[nH]c(C(=O)OC(C)(C)C)c1C`, the GI50 in experiment [1], in [2], in experiment [3], in experiment [4], in [5] and in [6] was > 100 µM (inactive) in each case. Besides, the GI50 in experiment [9] and in experiment [7] was > 100 µM (inactive) each time.
For the molecule `COc1cc2cc3c4cc(OC)c(OC)cc4cc[n+]3c(C)c2cc1OC.O=C([O-])CS(=O)(=O)O`, the GI50 in experiment [1] was > 100 µM (inactive); in experiment [2], 69 µM (inactive); in experiment [3], 10.8 µM (inactive); in [4], > 100 µM (inactive); in experiment [5] it was 48.4 µM (inactive); in [6] it was 3.34 µM (inactive). Moreover, the results for the GI50 in [9] and in [7] were 36.4 µM (inactive) and > 100 µM (inactive), respectively.
On to `c1ccc2c(CNCCCCCCCCCCCCNCc3cccc4ccccc34)cccc2c1`, for which the GI50 is 1.6 µM (inactive) in experiment [1]; 1.81 µM (inactive) in experiment [2]; 1.83 µM (inactive) in [3]; 1.84 µM (inactive) in experiment [4]; 1.9 µM (inactive) in experiment [5]; 1.69 µM (inactive) in [9]. The GI50 in experiment [7] was 2.84 µM (inactive).
Take `COc1cc(CO)cc2c1[nH]c1ccccc12` [KOENOLINE]: the GI50 in [1], in experiment [2], in experiment [3], in experiment [4], in experiment [5] and in experiment [6] was > 25 µM (inactive) throughout. In addition, the GI50 in experiment [9] and in experiment [7] was > 25 µM (inactive) each time.

Source of the values: ChEMBL document CHEMBL1201862, “PubChem BioAssay data set” (2004).
